Assay results reported in US8420657B2 (Novartis AG, priority 2008, dated 2013).

Target: T1, GST-JAK2(808-1132) (Homo sapiens, UniProt O60674)
T1 construct: GST-JAK2(808-1132); purchased Invitrogen (Carlsbad, USA) #4288
Assay: JAK2 kinase assay (Caliper mobility shift, LabChip 3000)
Type: biochemical
Source text: All four kinases of the JAK/TYK-kinase family were used as purified recombinant GST-fusion proteins, containing the active kinase domains. GST-JAK1 (866-1154), GST-JAK3(811-1124), and GST-TYK2(888-1187) were expressed and purified by affinity chromatography at the EPK biology unit. GST-JAK2(808-1132) was purchased from Invitrogen (Carlsbad, USA, #4288).
The kinase assays were based on the Caliper mobility shift assay using the LabChip 3000 systems. This technology is similar to capillary electrophoresis and uses charge driven separation of substrate and product in a microfluidic chip.
All kinase reactions were performed in 384 well microtiter plates in a total reaction volume of 18 μl. The assay plates were prepared with 0.1 μl per well of test compound in the appropriate test concentration, as described under the section “preparation of compound dilutions”. The reactions were started by combining 9 μl of substrate mix (consisting of peptide and ATP) with 9 μl of kinase dilution. The reactions were incubated for 60 minutes at 30° C. and stopped by adding 70 μl of stop buffer (100 mM Hepes, 5% DMSO, 0.1% Coating reagent, 10 mM EDTA, 0.015% Brij 35).
Fluorescently labeled synthetic peptides were used as substrates in all reactions. A peptide derived from the sequence of IRS-1(IRS-1 peptide, SEQ ID NO: 1 FITC-Ahx-KKSRGDYMTMQIG-NH2) was used for JAK1 and TYK2 and a peptide named JAK3tide SEQ ID NO: 2 (FITC-GGEEEEYFELVKKKK-NH2) for JAK2 and JAK3. Specific assay conditions are described in Table1:
The terminated reactions were transferred to the Caliper LabChip 3000 reader and the turnover of each reaction was measured by determining the substrate/product ratio.
Test compounds were dissolved in DMSO (10 mM) and transferred into 1.4 mL flat bottom or V-shaped Matrix tubes carrying a unique 2D matrix chip by individual compound hubs. The numbers of these chips were distinctively linked to the individual compound identification numbers. The stock solutions were stored at −20° C. if not used immediately. For the test procedure the vials were defrosted and identified by a scanner whereby a working sheet was generated that guided the subsequent working steps. Compound dilutions were made in 96 well plates. This format enabled the assay of maximally 40 individual test compounds at 8 concentrations (single points) including 4 reference compounds. The dilution protocol included the production of pre-dilution plates, master plates and assay plates:
Pre-dilution plates: 96 polypropylene well plates were used as pre-dilution plates. A total of 4 pre-dilution plates were prepared including 10 test compounds each on the plate positions A1-A10, one standard compound at A11 and one DMSO control at A12. All dilution steps were done on a HamiltonSTAR robot.
Master plates: 100 μL of individual compound dilutions including standard compound and controls of the 4 “pre-dilution plates” were transferred into a 384 “master plate” including the following concentrations 1,820, […], 182, 54.6, 18.2, 5.46, 1.82 and 0.546 μM, respectively in 90% of DMSO.
Assay plates: Identical assay plates were then prepared by pipetting 100 nL each of compound dilutions of the master plates into 384-well “assay plates”. In the following the compounds were mixed with 9 μL of assays components plus 9 μL enzyme corresponding to a 1:181 dilution steps enabling the final concentration of 10, 3.0, 1.0, 0.3, 0.1, 0.03, 0.01 and 0.003 μM, respectively. The preparation of the master plates were handled by the Matrix PlateMate Plus robot and replication of assay plates by the HummingBird robot.

T1 sequence (O60674 808-1132): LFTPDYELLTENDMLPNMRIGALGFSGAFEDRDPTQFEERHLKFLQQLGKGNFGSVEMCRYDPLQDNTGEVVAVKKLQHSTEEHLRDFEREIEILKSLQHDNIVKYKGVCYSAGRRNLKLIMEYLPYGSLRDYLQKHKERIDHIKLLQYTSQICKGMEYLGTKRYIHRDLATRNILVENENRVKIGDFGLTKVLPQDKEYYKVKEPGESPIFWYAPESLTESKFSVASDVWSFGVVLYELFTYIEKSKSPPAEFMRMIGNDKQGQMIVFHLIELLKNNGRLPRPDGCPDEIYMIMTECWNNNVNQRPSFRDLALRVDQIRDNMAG

| Structure (SMILES) | IC50 |
| --- | --- |
| Cc1ccc(Nc2ncc3ccn(-c4cc(F)c(CN5CCOCC5)c(F)c4)c3n2)cc1CN1CCNC2(CC2)C1 [Example 373, [3-(4,7-Diaza-spiro[2.5]oct-7-ylmethyl)-4-methyl-phenyl]-[7-(3,5-difluoro-4-morpholin-4-ylmethyl-phenyl)-7H-pyrrolo[2,3-d]pyrimidin-2-yl]-amine] | 4.3 nM |
| Cc1cnn(Cc2cc(Nc3ncc4ccn(-c5cc(F)c(CN6CCOCC6)c(F)c5)c4n3)ccc2C)c1 [Example 481, [7-(3,5-Difluoro-4-morpholin-4-ylmethyl-phenyl)-7H-pyrrolo[2,3-d]pyrimidin-2-yl]-[4-methyl-3-(4-methyl-pyrazol-1-ylmethyl)-phenyl]-amine] | 5.1 nM |
| CN1CCN(c2ncc(Nc3ncc4ccn(-c5ccc(S(C)(=O)=O)cc5)c4n3)cn2)CC1 [Example 276, [7-(4-Methanesulfonyl-phenyl)-7H-pyrrolo[2,3-d]pyrimidin-2-yl]-[2-(4-methyl-piperazin-1-yl)-pyrimidin-5-yl]-amine] | 120 nM |
| CN1CCN(c2ccc(Nc3ncc4ccn(-c5ccc(S(=O)(=O)NC(C)(C)C)cc5)c4n3)cc2)CC1 [Example 348, N-tert-Butyl-4-{2-[4-(4-methyl-piperazin-1-yl)-phenylamino]-pyrrolo[2,3-d]pyrimidin-7-yl}-benzenesulfonamide] | 6.2 nM |
| CS(=O)(=O)c1ccc(-n2ccc3cnc(Nc4ccc5c(c4)OCO5)nc32)cc1 [Example 15, Benzo[1,3]dioxol-5-yl-[7-(4-methanesulfonyl-phenyl)-7H-pyrrolo[2,3-d]pyrimidin-2-yl]-amine] | 8.5 nM |
| CS(=O)(=O)c1ccc(-n2ccc3cnc(Nc4cccc(OCCN5CCOCC5)c4)nc32)cc1 [Example 35, [7-(4-Methanesulfonyl-phenyl)-7H-pyrrolo[2,3-d]pyrimidin-2-yl]-[3-(2-morpholin-4-yl-ethoxy)-phenyl]-amine] | 4.9 nM |
| CS(=O)(=O)c1ccc(-n2ccc3cnc(Nc4ccc(N5CCNCC5)nc4)nc32)cc1 [Example 282, [7-(4-Methanesulfonyl-phenyl)-7H-pyrrolo[2,3-d]pyrimidin-2-yl]-(6-piperazin-1-yl-pyridin-3-yl)-amine] | 82 nM |
| CS(=O)(=O)c1ccc(-n2ccc3cnc(Nc4ccnc(N5CCNC6(CC6)C5)c4)nc32)cc1 [Example 275, [2-(4,7-Diaza-spiro[2.5]oct-7-yl)-pyridin-4-yl]-[7-(4-methanesulfonyl-phenyl)-7H-pyrrolo[2,3-d]pyrimidin-2-yl]-amine] | 7 nM |
| CC(C)(C)OC(=O)N1CCCC1c1ccc(Nc2ncc3ccn(-c4ccc(S(C)(=O)=O)cc4)c3n2)cc1 (centres unmarked) [Example 46, 2-{4-[7-(4-Methanesulfonyl-phenyl)-7H-pyrrolo[2,3-d]pyrimidin-2-ylamino]-phenyl}-pyrrolidine-1-carboxylic acid tert-butyl ester] | 38 nM |
| Fc1cc(-n2ccc3cnc(Nc4ccncc4)nc32)cc(F)c1CN1CCOCC1 [Example 211, [7-(3,5-Difluoro-4-morpholin-4-ylmethyl-phenyl)-7H-pyrrolo[2,3-d]pyrimidin-2-yl]-pyridin-4-yl-amine] | 5.9 nM |
| COc1cc(C)c(Nc2ncc3ccn(-c4ccc(S(C)(=O)=O)cc4)c3n2)cc1OC [Example 11, (4,5-Dimethoxy-2-methyl-phenyl)-[7-(4-methanesulfonyl-phenyl)-7H-pyrrolo[2,3-d]pyrimidin-2-yl]-amine] | 190 nM |

Molecules with a lower IC50, results first:

| IC50 | Structure (SMILES) |
| --- | --- |
| 3.3 nM | CC(C)(C)NS(=O)(=O)c1ccc(-n2ccc3cnc(Nc4ccc(CN5CCN(C6CC6)CC5)cc4)nc32)cc1 [Example 345, N-tert-Butyl-4-{2-[4-(4-cyclopropyl-piperazin-1-ylmethyl)-phenylamino]-pyrrolo[2,3-d]pyrimidin-7-yl}-benzenesulfonamide] |
| 3.9 nM | COc1ccc(Nc2ncc3ccn(-c4ccc(S(C)(=O)=O)cc4)c3n2)cc1 [Example 20, [7-(4-Methanesulfonyl-phenyl)-7H-pyrrolo[2,3-d]pyrimidin-2-yl]-(4-methoxy-phenyl)-amine] |
| < 3 nM | Cc1ccc(Nc2ncc3ccn(-c4ccc(C(=O)N5CCOCC5)c(F)c4)c3n2)cc1CN1CCOCC1 [Example 327, {2-Fluoro-4-[2-(4-methyl-3-morpholin-4-ylmethyl-phenylamino)-pyrrolo[2,3-d]pyrimidin-7-yl]-phenyl}-morpholin-4-yl-methanone] |
| < 3 nM | COc1cc(Nc2ncc3ccn(-c4ccc(S(=O)(=O)N(C)C)cc4)c3n2)cc(OC)c1OC [Example 10, N,N-Dimethyl-4-[2-(3,4,5-trimethoxy-phenylamino)-pyrrolo[2,3-d]pyrimidin-7-yl]-benzenesulfonamide] |
| < 3 nM | CC(=O)N1CCN(Cc2ccc(Nc3ncc4ccn(-c5cc(F)c(CN6CCOCC6)c(F)c5)c4n3)cc2)CC1 [Example 318, 1-(4-{4-[7-(3,5-Difluoro-4-morpholin-4-ylmethyl-phenyl)-7H-pyrrolo[2,3-d]pyrimidin-2-ylamino]-benzyl}-piperazin-1-yl)-ethanone] |
| ≤ 3 nM | O=C1NC(c2ccc(Nc3ncc4ccn(-c5cc(F)c(CN6CCOCC6)c(F)c5)c4n3)cc2)CN2CCCCC12 (centres unmarked) [Example 389, 3-{4-[7-(3,5-Difluoro-4-morpholin-4-ylmethyl-phenyl)-7H-pyrrolo[2,3-d]pyrimidin-2-ylamino]-phenyl}-hexahydro-pyrido[1,2-a]pyrazin-1-one] |
| ≤ 3 nM | CN1CCN(c2ccc(Nc3ncc4ccn(-c5cc(F)c(CN6CCNC(=O)C6)c(F)c5)c4n3)cc2)CC1 [Example 341, 4-(2,6-Difluoro-4-{2-[4-(4-methyl-piperazin-1-yl)-phenylamino]-pyrrolo[2,3-d]pyrimidin-7-yl}-benzyl)-piperazin-2-one] |
| 3.3 nM | Cc1ccc(Nc2ncc3ccn(-c4ccc(C(=O)N5CCOCC5)cc4)c3n2)cc1CN1CCN(C)CC1 [Example 437, (4-{2-[4-Methyl-3-(4-methyl-piperazin-1-ylmethyl)-phenylamino]-pyrrolo[2,3-d]pyrimidin-7-yl}-phenyl)-morpholin-4-yl-methanone] |
| < 3 nM | CC(=O)N1CCN(Cc2ccc(Nc3ncc4ccn(-c5ccc(C(=O)N6CCOCC6)c(F)c5)c4n3)cc2)CC1 [Example 322, 1-[4-(4-{7-[3-Fluoro-4-(morpholine-4-carbonyl)-phenyl]-7H-pyrrolo[2,3-d]pyrimidin-2-ylamino}-benzyl)-piperazin-1-yl]-ethanone] |
| 3.7 nM | O=C(c1ccc(-n2ccc3cnc(Nc4ccc(CN5CCNCC5)cc4)nc32)cc1F)N1CCOCC1 [Example 313, {2-Fluoro-4-[2-(4-piperazin-1-ylmethyl-phenylamino)-pyrrolo[2,3-d]pyrimidin-7-yl]-phenyl}-morpholin-4-yl-methanone] |
| < 3 nM | CN1CCN2c3ccc(Nc4ncc5ccn(-c6ccc(S(C)(=O)=O)cc6)c5n4)cc3COCC2C1 (centres unmarked) [Example 12, [7-(4-Methanesulfonyl-phenyl)-7H-pyrrolo[2,3-d]pyrimidin-2-yl]-(3-methyl-1,2,3,4,4a,5-hexahydro-7H-6-oxa-3,11b-diaza-dibenzo[a,c]cyclohepten-9-yl)-amine] |
| < 3 nM | COc1ccc(Nc2ncc3ccn(-c4ccc(S(C)(=O)=O)cc4)c3n2)cc1N1CCN(C)CC1 [Example 25, [7-(4-Methanesulfonyl-phenyl)-7H-pyrrolo[2,3-d]pyrimidin-2-yl]-[4-methoxy-3-(4-methyl-piperazin-1-yl)-phenyl]-amine] |
